Experimental data: patent US20040268437A1, “Method for biosynthesizing the serotonin derivatives in plants” (CHONNAM NATIONAL UNIVERSITY, priority 2003, published 2004)

Assays:
potato THT = settings: potato THT; cited from earlier work
[1] = test system: Hot pepper (Variety: Pungcheon); assay: Soil treatment of hot pepper with inducers; serotonin derivative content in sarcocarps by HPLC; assay type: in vivo; settings: for Content of serotonin derivatives: Coumaroyl Serotonin / Content of serotonin derivatives: Feruloyl serotonin / Content of serotonin derivatives: Total content: inducer 100 μM to soil, 300,000 L/ha, 20 days; for Rank of inducers by serotonin derivatives produced: in words
Protocol: Hot pepper (Variety: Pungcheon) was treated with inducers for serotonin derivative biosynthesis, followed by an examination of biosynthesis of serotonin derivatives.
(§1) Particularly, inducers for serotonin derivative biosynthesis were prepared by dissolving tyramine, tryptamine, cinnamic acid, coumaric acid, caffeic acid and ferulic acid in water respectively to make each concentration 100 μM. And then the soil where rice plants (about 40 days after heading) had been growing was treated once with each inducer for serotonin derivative biosynthesis at the rate of 300,000 L/ha, followed by further cultivation for 20 days.
The ripe sarcocarps of hot peppers were obtained to investigate the content of serotonin derivatives by the same method as used in the above Example <1-1>. Control group hot pepper was cultivated under the same condition as the experimental group hot pepper except the treatment with inducers for serotonin derivative biosynthesis.

[2] = test system: Rice plants (Variety: Nakdong); assay: Soil treatment of rice with inducers; serotonin derivative content in seeds by HPLC; assay type: in vivo; settings: for Content of serotonin derivatives: Coumaroyl Serotonin / Content of serotonin derivatives: Feruloyl serotonin / Content of serotonin derivatives: Total content: inducer 100 μM to soil, 300,000 L/ha, 20 days; for Rank of inducers by serotonin derivatives produced: in words
Protocol: Rice plants (Variety: Nakdong) having been cultivated in the rice field were treated with inducers for serotonin derivative biosynthesis and then biosynthesis of the serotonin derivatives was investigated.
as §1, with “Inducers for serotonin” for “Particularly, inducers for serotonin”, “ferulic acid (Sigma-Aldrich, Korea) in water” for “ferulic acid in water”
As a control group, rice plant which had been cultivated under the same conditions except the treatment with inducers for serotonin derivative biosynthesis was used.
After harvesting rice, seeds of the rice were peeled to obtain brown rice. N-(hydroxycinnamoyl)-amines were extracted from 1 g of the brown rice by known method (Ishihara et al., Biosci. Biotechnol. Biochem. 64, 1025-1031, 2000), and then, HPLC was performed.
Coumaroylserotonin and feruloylserotonin included in the extract of seeds of rice, treated with inducers for serotonin derivative biosynthesis, were quantified by HPLC using a standard substance synthesized by a well-known method (Villegas & Brodelius, Physiol. Plant. 78, 414-420, 1990).

[3] = test system: transgenic rice plants (T14) over-expressing THT; assay: Soil treatment of transgenic rice T14 with inducers; serotonin derivative content in seeds; assay type: in vivo; settings: seeds of transgenic rice T14; inducer 100 μM to soil, 300,000 L/ha, 20 days
Protocol: Among T2 generations of transgenic rice plants, T14 was transplanted in the soil, to which inducers for serotonin derivative biosynthesis were treated. After cultivation, the contents of serotonin derivatives in seeds of the transgenic rice plants were investigated.
As inducers for serotonin derivative biosynthesis, tyramine, tryptamine, cinnamic acid, coumaric acid, caffeic acid and ferulic acid were used. Precisely, the inducers for serotonin derivative biosynthesis were dissolved in water, making each concentration 100 μM. Then, the solutions were added at the rate of 300,000 L/ha, to the soil where rice plants (about 40 days after heading) were growing. The plants were cultivated for 20 more days.
The seeds of the plants cultivated above were collected, and the content of serotonin derivatives in them was investigated with the same method as used in the Example <1-1>, which was compared with that in seeds of wild type control rice plants.

[4] = test system: recombinant hot pepper THT; settings: hydroxycinnamic acid derivative substrates; cited from earlier work

| SMILES | Use as amine substrate (potato THT) | Content of serotonin derivatives: Coumaroyl Serotonin [1] | Content of serotonin derivatives: Feruloyl serotonin [1] | Content of serotonin derivatives: Total content [1] | Content of serotonin derivatives: Coumaroyl Serotonin [2] | Content of serotonin derivatives: Feruloyl serotonin [2] | Content of serotonin derivatives: Total content [2] | Content of serotonin derivative: Coumaroyl serotonin [3] | Content of serotonin derivative: Feruloyl serotonin [3] | Content of serotonin derivative: Total content [3] | Maximum reaction velocity (Vmax) relative to coumaroyl-CoA [4] | Rank of inducers by serotonin derivatives produced [1] | Rank of inducers by serotonin derivatives produced [2] |
| --- | --- | --- | --- | --- | --- | --- | --- | --- | --- | --- | --- | --- | --- |
| NCCCCN [putricine] | not used as a substrate |  |  |  |  |  |  |  |  |  |  |  |  |
| NCCc1c[nH]c2ccccc12 [Tryptamine, tryptamine] | not used as a substrate | 61 ng/1 g sarcocarps | 79 ng/1 g sarcocarps | 140 ng/1 g sarcocarps | 20 ng/1 g seed | 28 ng/1 g seed | 48 ng/1 g seed | 376 ng/g seeds | 382 ng/g seeds | 758 ng/g seeds |  |  |  |
| NCCCCCN [cadaverin] | not used as a substrate |  |  |  |  |  |  |  |  |  |  |  |  |
| CC(C)(COP(=O)(O)OP(=O)(O)OC[C@H]1O[C@@H](n2cnc3c(N)ncnc32)[C@H](O)[C@@H]1OP(=O)(O)O)[C@@H](O)C(=O)NCCC(=O)NCCSC(=O)C=Cc1ccccc1 [cinnamoyl-CoA] |  |  |  |  |  |  |  |  |  |  | 15 times |  |  |
| NCCCNCCCCNCCCN [spermine] | not used as a substrate |  |  |  |  |  |  |  |  |  |  |  |  |
| O=C(O)C=Cc1ccccc1 [Cinnamic acid, cinnamic acid] |  | 214 ng/1 g sarcocarps | 276 ng/1 g sarcocarps | 490 ng/1 g sarcocarps | 48 ng/1 g seed | 76 ng/1 g seed | 124 ng/1 g seed | 403 ng/g seeds | 406 ng/g seeds | 809 ng/g seeds |  | produced most | produced most |
| O=C(O)/C=C/c1ccc(O)cc1 [Coumaric acid, coumaric acid] |  | 120 ng/1 g sarcocarps | 170 ng/1 g sarcocarps | 290 ng/1 g sarcocarps | 15 ng/1 g seed | 21 ng/1 g seed | 36 ng/1 g seed | 325 ng/g seeds | 599 ng/g seeds | 924 ng/g seeds |  |  |  |
| COc1cc(/C=C/C(=O)O)ccc1O [Ferulic acid, ferulic acid] |  | 145 ng/1 g sarcocarps | 230 ng/1 g sarcocarps | 375 ng/1 g sarcocarps | 33 ng/1 g seed | 37 ng/1 g seed | 70 ng/1 g seed | 313 ng/g seeds | 537 ng/g seeds | 850 ng/g seeds |  | second most | third most |
| NCCCCNCCCN [spermidine] | not used as a substrate |  |  |  |  |  |  |  |  |  |  |  |  |
| N=C(N)NCCCCN [agmatine] | not used as a substrate |  |  |  |  |  |  |  |  |  |  |  |  |
| O=C(O)/C=C/c1ccc(O)c(O)c1 [Caffeic acid, caffeic acid] |  | 138 ng/1 g sarcocarps | 162 ng/1 g sarcocarps | 300 ng/1 g sarcocarps | 20 ng/1 g seed | 23 ng/1 g seed | 43 ng/1 g seed | 368 ng/g seeds | 430 ng/g seeds | 798 ng/g seeds |  |  |  |
